From ChEMBL document CHEMBL5346881 (Eur J Med Chem, 2023)

Columns and labels:
MRC5 [1] = test: Antiproliferative activity against human MRC5 cells assessed inhibition of cell growth incubated for 48 hrs by MTT assay; assay type: functional, cell-based; settings: MRC5, 48 h
PC-3 [2] = test: Antiproliferative activity against human PC-3 cells assessed inhibition of cell growth incubated for 48 hrs by MTT assay; assay type: functional, cell-based; settings: PC-3, 48 h
SK-OV-3 [3] = test: Antiproliferative activity against human SK-OV-3 cells assessed inhibition of cell growth incubated for 48 hrs by MTT assay; assay type: functional, cell-based; settings: SK-OV-3, 48 h
[4] = Growth inhibition of human UWB1289 cells harboring BRCA1 incubated for 48 hrs by MTT assay; assay type: functional
[5] = Antiproliferative activity against human UWB1289 cells harboring BRCA1 assessed inhibition of cell growth incubated for 48 hrs by MTT assay; assay type: functional, cell-based; settings: UWB1289, 48 h
PC-3 [6] = test: Growth inhibition of human PC-3 cells incubated for 48 hrs by MTT assay; assay type: functional
MCF7 [7] = test: Growth inhibition of human MCF7 cells incubated for 48 hrs by MTT assay; assay type: functional
MRC5 [8] = test: Growth inhibition of human MRC5 cells incubated for 48 hrs by MTT assay; assay type: functional
MCF7 [9] = test: Antiproliferative activity against human MCF7 cells assessed inhibition of cell growth incubated for 48 hrs by MTT assay; assay type: functional, cell-based; settings: MCF7, 48 h
SK-OV-3 [10] = test: Growth inhibition of human SK-OV-3 cells incubated for 48 hrs by MTT assay; assay type: functional
MDA-MB-453 = test: Antiproliferative activity against human MDA-MB-453 cells assessed inhibition of cell growth incubated for 48 hrs by MTT assay; assay type: functional, cell-based; settings: MDA-MB-453, 48 h
HeLa = test: Antiproliferative activity against human HeLa cells assessed inhibition of cell growth incubated for 48 hrs by MTT assay; assay type: functional, cell-based
HuP-T3 = test: Antiproliferative activity against human HuP-T3 cells assessed inhibition of cell growth incubated for 48 hrs by MTT assay; assay type: functional, cell-based; settings: HuP-T3, 48 h
P388 = test: Antitumor activity against mouse P388 cells xenografted in CB17 SCID mouse assessed as T/C ratio at 140 uM, ip administered as single dose measured after 17 days; assay type: functional; settings: time 17 day
LS174T = test: Antiproliferative activity against human LS174T cells assessed inhibition of cell growth incubated for 48 hrs by MTT assay; assay type: functional, cell-based
MDA-MB-231 = test: Antiproliferative activity against human MDA-MB-231 cells assessed inhibition of cell growth incubated for 48 hrs by MTT assay; assay type: functional, cell-based; settings: MDA-MB-231, 48 h
HT-29 = test: Antiproliferative activity against human HT-29 cells assessed inhibition of cell growth incubated for 48 hrs by MTT assay; assay type: functional, cell-based; settings: HT-29, 48 h
[11] = Acute toxicity in ip dosed CB17 SCID mouse assessed as lethal dose; assay type: organism-based; set-up: LD20: unit not given here; settings: in vivo
LoVo = test: Antiproliferative activity against human LoVo cells assessed inhibition of cell growth incubated for 48 hrs by MTT assay; assay type: functional, cell-based
SK-OV-3 [12] = test: Antitumor activity against human SK-OV-3 cells xenografted in CB17 SCID mouse assessed as tumor inhibition at 140 uM, ip administered as single dose measured after 17 days; assay type: functional; settings: SK-OV-3, 408 h, time 17 day, read-out: TGI
SK-OV-3 [13] = test: Antitumor activity against human SK-OV-3 cells xenografted in CB17 SCID mouse assessed as reduction in tumor volume at 36 mg/kg, ip administered as single dose measured after 11 days (reference value: 790 +/- 65.6 mm3); assay type: functional; settings: time 11 day
SK-OV-3 [14] = test: Antitumor activity against human SK-OV-3 cells xenografted in CB17 SCID mouse assessed as tumor inhibition at 36 mg/kg, ip administered as single dose measured after 11 days; assay type: functional; settings: SK-OV-3, 264 h, time 11 day, read-out: TGI
PC-3 [15] = test: Antitumor activity against human PC-3 cells xenografted in CB17 SCID mouse assessed as tumor inhibition at 36 mg/kg, ip administered as single dose measured after 21 days; assay type: functional; settings: PC-3, 504 h, time 21 day, read-out: TGI
PC-3 [16] = test: Antitumor activity against human PC-3 cells xenografted in CB17 SCID mouse assessed as reduction in tumor volume at 36 mg/kg, ip administered as single dose measured after 21 days (reference value: 683 +/- 47.3 mm3); assay type: functional; settings: time 21 day

Compound | IC50 (MRC5 [1]) [µM] | IC50 (PC-3 [2]) [µM] | IC50 (SK-OV-3 [3]) [µM] | GI50 [4] [µM] | TGI [4] [µM] | IC50 [5] [µM] | GI50 (PC-3 [6]) [µM] | TGI (PC-3 [6]) [µM] | GI50 (MCF7 [7]) [µM] | TGI (MCF7 [7]) [µM] | GI50 (MRC5 [8]) [µM] | TGI (MRC5 [8]) [µM] | IC50 (MCF7 [9]) [µM] | GI50 (SK-OV-3 [10]) [µM] | TGI (SK-OV-3 [10]) [µM] | IC50 (MDA-MB-453) [µM] | IC50 (HeLa) [µM] | IC50 (HuP-T3) [µM] | T/C (P388) | IC50 (LS174T) [µM] | also measured
CC(=O)O[C@@H](COc1ccc(N(CCCl)CCCl)cc1)C(=O)O | > 100 | > 100 | > 100 | > 100 | > 100 | > 100 | > 100 | > 100 | 80 | > 100 | 50 | > 100 | > 100 | > 100 | > 100 |  |  |  |  |  | 
CC(=O)O[C@@H](COc1ccc(N(CCCl)CCCl)cc1)C(=O)O[C@H]1CC[C@H]2[C@@H]3CCC4=CC(=O)NCC[C@]4(C)[C@H]3C(=O)C[C@]12C | 52 | 16 | 33 | 3 | 7 | 12 | 8.2 | 9 | 2.2 | 7 | 27 | 38 | 12 | 3.8 | 9 |  |  |  |  |  | 
C[C@]12CC[C@H]3[C@@H](CCC4=CC(=O)NCC[C@@]43C)[C@@H]1CC[C@@H]2OC(=O)[C@@H](N)COc1ccc(N(CCCl)CCCl)cc1 |  |  | 1 |  |  | 1 |  |  |  |  |  |  |  |  |  | 1 | 1 | 1 | 410.3 | 1 | IC50 (MDA-MB-231): 1 µM; IC50 (HT-29): 1 µM; LD20 ([11]; ip): 12.5; LD50 ([11]; ip): 21; IC50 (LoVo): 1 µM
CC(=O)O[C@@H](COc1ccc(N(CCCl)CCCl)cc1)C(=O)O[C@H]1CC[C@H]2[C@@H]3CCC4=CC(=O)NCC[C@]4(C)[C@H]3CC[C@]12C | 21.5 | 9 | 3.9 | 0.7 | 2.2 | 6.3 | 1.7 | 3.9 | 1.5 | 3.4 | 3.9 | 15.3 | 4.3 | 0.8 | 2.2 |  |  |  |  |  | 
C[C@]12CC(=O)[C@H]3[C@@H](CCC4=CC(=O)NCC[C@@]43C)[C@@H]1CC[C@@H]2OC(=O)[C@@H](N)COc1ccc(N(CCCl)CCCl)cc1 |  |  | 4 |  |  | 4 |  |  |  |  |  |  |  |  |  | 4 | 4 | 4 | 109.9 | 4 | inhibition in vivo at 140 µM (SK-OV-3 [12]): 110%; IC50 (MDA-MB-231): 4 µM; IC50 (HT-29): 4 µM; LD20 ([11]; ip): 10; LD50 ([11]; ip): 14; IC50 (LoVo): 4 µM
C[C@]12CC(=O)[C@H]3[C@@H](CCC4=CC(=O)NCC[C@@]43C)[C@@H]1CC[C@@H]2OC(=O)[C@@H](O)COc1ccc(N(CCCl)CCCl)cc1 | 68 | 28 | 36 | 5 | 13.2 | 56 | 4 | 9 | 6 | 11 | 12 | 44 | 21 | 3.4 | 12 |  |  |  |  |  | 
CC(=O)O[C@@H](COc1ccc(N(CCCl)CCCl)cc1)C(=O)Oc1ccc2c(c1)CC[C@@H]1[C@@H]2CC[C@]2(C)NC(=O)CC[C@@H]12 | 19 | 15 | 22 | 3 | 8.8 | 11.9 | 4.5 | 8.9 | 2 | 5.5 | 6.5 | 10 | 10 | 4 | 9 |  |  |  |  |  | 
C[C@]12CC(=O)[C@H]3[C@@H](CCC4=CC(=O)NCC[C@@]43C)[C@@H]1CC[C@@H]2OC(=O)CCOc1ccc(N(CCCl)CCCl)cc1 |  |  | 65 |  |  | 65 |  |  |  |  |  |  |  |  |  | 65 | 65 | 65 | 356 | 65 | IC50 (MDA-MB-231): 65 µM; IC50 (HT-29): 65 µM; LD20 ([11]; ip): 140; LD50 ([11]; ip): 110; IC50 (LoVo): 65 µM
C[C@]12CC[C@H]3[C@@H](CCC4=CC(=O)NCC[C@@]43C)[C@@H]1CC[C@@H]2OC(=O)[C@@H](O)COc1ccc(N(CCCl)CCCl)cc1 | 22.5 | 11 | 9 | 1.2 | 4 | 51 | 2 | 4 | 1.5 | 3.8 | 3 | 10 | 8 | 1 | 3.5 |  |  |  |  |  | Activity (SK-OV-3 [13]): 192 mm3; inhibition in vivo at 36 mg/kg (SK-OV-3 [14]): 95%; inhibition in vivo at 36 mg/kg (PC-3 [15]): 85.2%; LD50 ([11]; CB17 SCID, read-out: LD50): 28 mg/kg; LD10 ([11]; ip): 36 mg/kg; Activity (PC-3 [16]): 181 mm3
